Measurements published in EP1063290A1, “NOVEL DICARBONYLREDUCTASE AND GENE ENCODING THE SAME” (TAISHO PHARMACEUTICAL CO., LTD, priority 1998, dated 1999).
Like-named read-outs stand apart in the source and are kept apart here.

How the values were obtained:
protein DCR1 = protein DCR1 (Mus musculus, UniProt Q91X52); experiment: Dicarbonyl reductase activity assay: substrate specificity and rate constants (NAD(P)H oxidation at 340 nm); conditions: for activity (as substrate): Example 5, result in words
Protocol: (§1) The enzyme activity assay method is not particularly restricted, and it may be based on the activity assay method for mouse carbonyl reductase (CR) (Eur. J. Biochem. 22, 381-387(1995)). The enzyme used here was an expressed recombinant enzyme. • (a) Substrate specificity: In order to determine the substrate specificity, there may be used a hydrocarbon system including various ketone, aldehyde and ester groups, or an aromatic compound.
• (1) This was assayed under the following conditions. The reaction mixture (total: 2.0 ml) comprised an 80 mM potassium phosphate solution (pH 7.0 or 6.0), 0.1 mM NADPH or NADH and a carbonyl substrate or enzyme (50 µl) (10.1 µg or 3.7 µg of glomerin B). The oxidation rate for NAD(P)H was measured at 340 nm.

protein hDCR1 = protein hDCR1 (Homo sapiens, UniProt Q7Z4W1); experiment: Dicarbonyl reductase activity assay: substrate specificity (NAD(P)H oxidation at 340 nm); conditions: against a reference of 100 for diacetyl
Protocol: as §1
The reaction mixture (total: 2.0 ml) comprised an 80 mM potassium phosphate solution (pH 7.0 or 6.0), 0.1 mM NADPH or NADH and a carbonyl substrate or enzyme (50 µl) (10.1 µg or 3.7 µg of hDCR1).
The oxidation rate for NAD(P)H was measured at 340 nm.
One unit of enzyme activity was defined as that which catalyzed oxidation of 1 µmol of NAD(P)H in one minute at 25°C.

[1] = substrate concentration 1,000 μM, against a reference of 100 for diacetyl
[2] = substrate concentration 5,000 μM, against a reference of 100 for diacetyl
[3] = substrate concentration 5,000 μM
[4] = substrate concentration 1,000 μM
[5] = substrate concentration 20 μM, against a reference of 100 for diacetyl
[6] = substrate concentration 2,000 μM
[7] = substrate concentration 500 μM, against a reference of 100 for diacetyl
[8] = substrate concentration 100 μM, against a reference of 100 for diacetyl

Sequence of protein DCR1 (Q91X52 whole entry): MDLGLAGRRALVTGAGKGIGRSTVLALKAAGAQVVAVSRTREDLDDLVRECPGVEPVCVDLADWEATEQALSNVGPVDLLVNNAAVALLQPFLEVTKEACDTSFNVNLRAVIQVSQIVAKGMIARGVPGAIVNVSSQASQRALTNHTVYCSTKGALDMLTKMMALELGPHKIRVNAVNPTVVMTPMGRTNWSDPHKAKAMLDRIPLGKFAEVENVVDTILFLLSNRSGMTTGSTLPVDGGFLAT
Sequence of protein hDCR1 (Q7Z4W1 whole entry): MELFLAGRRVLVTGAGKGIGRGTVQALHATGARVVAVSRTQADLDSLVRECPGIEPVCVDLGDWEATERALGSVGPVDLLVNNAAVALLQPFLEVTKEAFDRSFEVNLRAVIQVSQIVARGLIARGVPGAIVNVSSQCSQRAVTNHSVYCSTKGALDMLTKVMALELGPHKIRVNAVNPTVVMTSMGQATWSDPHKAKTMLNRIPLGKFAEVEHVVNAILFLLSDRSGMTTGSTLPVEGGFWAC

Molecule: O=CC(O)CO (racemic) [DL-Glyceraldehyde]
- RA (%) relative activity (protein DCR1; [1]): 10.4%
- RA (%) relative activity (protein DCR1; [2]): 40%
- RA (%) relative activity (protein hDCR1; [3]): 25%

Molecule: O=C1CCCCC1=O [1,2-Cyclohexanedione]
- RA (%) relative activity (protein DCR1; [1]): 10.9%
- RA (%) relative activity (protein hDCR1; [4]): 27%

Molecule: O=C1C=Cc2ccccc2C1=O [1,2-Naphtoquinone]
- RA (%) relative activity (protein DCR1; [5]): 47%

Molecule: O=C1CCC(=O)CC1 [1,4-Cyclohexanedione]
- RA (%) relative activity (protein DCR1; [1]): 0%

Molecule: CCCCCCCCC=O [1-Nonanal]
- RA (%) relative activity (protein DCR1; substrate concentration 50 μM, against a reference of 100 for diacetyl): 0.005%

Molecule: O=C1c2ccccc2C(=O)C1c1ccccc1 [1-Phenyl-1,3-indanedione]
- RA (%) relative activity (protein DCR1; substrate concentration 400 μM, against a reference of 100 for diacetyl): 0.6%

Molecule: CCC=O [1-Propanal]
- RA (%) relative activity (protein DCR1; [2]): 0.5%

Molecule: CC(=O)CC(C)=O [2,4-Pentanedione]
- RA (%) relative activity (protein DCR1; [1]): 0%
- RA (%) relative activity (protein hDCR1; [4]): 0%

Molecule: CC(=O)CCC(C)=O [2,5-Hexanedione]
- RA (%) relative activity (protein DCR1; [1]): 0%

Molecule: CCC(C)=O [2-Butanone]
- RA (%) relative activity (protein DCR1): 0%

Molecule: O=C1C=CCCC1 [2-Cyclohexen-1-one]
- RA (%) relative activity (protein DCR1; [1]): 1.3%

Molecule: O=C(O)C(=O)[C@@H](O)[C@H](O)[C@@H](O)CO [2-Ketogulonate]
- RA (%) relative activity (protein DCR1; [1]): 0%

Molecule: O=Cc1ccccc1[N+](=O)[O-] [2-Nitrobenzaldehyde]
- RA (%) relative activity (protein DCR1; substrate concentration 1,500 μM, against a reference of 100 for diacetyl): 3.9%
- RA (%) relative activity (protein hDCR1; [4]): 99%

Molecule: OC1C=CCCC1 (centres unmarked) [2-cyclohexen-1-ol]
- activity (as substrate) (protein DCR1): no activity

Molecule: O=CC(=O)C[C@H](O)[C@H](O)CO [3-Deoxyglucosone]
- RA (%) relative activity (protein DCR1; substrate concentration 2,000 μM, against a reference of 100 for diacetyl): 0.4%
- RA (%) relative activity (protein hDCR1; [6]): 5%

Molecule: O=Cc1cccc([N+](=O)[O-])c1 [3-Nitrobenzaldehyde]
- RA (%) relative activity (protein DCR1; substrate concentration 3,000 μM, against a reference of 100 for diacetyl): 3.3%

Molecule: O=C(c1ccccc1)c1ccncc1 [4-Benzoylpyridine]
- RA (%) relative activity (protein DCR1; [1]): 7%
- RA (%) relative activity (protein hDCR1; [4]): 39%

Molecule: CC(=O)c1ccc([N+](=O)[O-])cc1 [4-Nitroacetophenone]
- activity (as substrate) (protein DCR1): no activity
- RA (%) relative activity (protein DCR1; [1]): 0%
- RA (%) relative activity (protein hDCR1; [4]): 0%

Molecule: O=Cc1ccc([N+](=O)[O-])cc1 [4-Nitrobenzaldehyde]
- RA (%) relative activity (protein DCR1; [1]): 3.3%
- RA (%) relative activity (protein hDCR1; [4]): 69%

Molecule: C[C@]12CCC(=O)C[C@@H]1CC[C@@H]1[C@@H]2CC[C@]2(C)C(=O)CC[C@@H]12 [5α-Androstane-3,17-dione]
- RA (%) relative activity (protein DCR1): 0.0%
- RA (%) relative activity (protein hDCR1; substrate concentration 50 μM): 0%

Molecule: C[C@]12CCC(=O)C[C@@H]1CC[C@@H]1[C@@H]2CC[C@]2(C)[C@@H](O)CC[C@@H]12 [5α-DHT]
- RA (%) relative activity (protein hDCR1; substrate concentration 50 μM): 0%

Molecule: C[C@]12CCC(=O)C[C@H]1CC[C@@H]1[C@@H]2CC[C@]2(C)C(=O)CC[C@@H]12 [5β-Androstane-3,17-dione]
- RA (%) relative activity (protein DCR1): 0.0%

Molecule: CC(=O)[C@H]1CC[C@H]2[C@@H]3CC[C@@H]4CC(=O)CC[C@]4(C)[C@H]3CC[C@]12C [5β-Pregnane-3,20-dione]
- RA (%) relative activity (protein DCR1; [5]): 0.0%

Molecule: C[C@]12CCC(=O)C[C@H]1CC[C@@H]1[C@@H]2C(=O)C[C@@]2(C)[C@H]1CC[C@]2(O)C(=O)CO [5β-dihydrocortisone]
- RA (%) relative activity (protein hDCR1; substrate concentration 20 μM): 0%

Molecule: CC(=O)[C@@]1(O)CC[C@H]2[C@@H]3CCC4=CC(=O)CC[C@]4(C)[C@H]3CC[C@@]21C [17α-hydroxyprogesterone]
- RA (%) relative activity (protein DCR1; [5]): 0.0%
- RA (%) relative activity (protein hDCR1; substrate concentration 50 μM): 0%

Molecule: CC=O [Acetaldehyde]
- RA (%) relative activity (protein DCR1; [2]): 1.8%

Molecule: CC(=O)c1ccc(S(=O)(=O)NC(=O)NC2CCCCC2)cc1 [Acetohexamide]
- RA (%) relative activity (protein DCR1; [1]): 0%

Molecule: CC(=O)C(C)O (centres unmarked) [Acetoin]
- RA (%) relative activity (protein DCR1; [2]): 7.4%
- RA (%) relative activity (protein hDCR1; [3]): 13%

Molecule: CC(=O)CO [Acetol]
- RA (%) relative activity (protein DCR1; [1]): 0.8%

Molecule: CC(=O)C=Cc1ccccc1 [Benzalacetone]
- RA (%) relative activity (protein DCR1; [7]): 0%

Molecule: O=C(C(=O)c1ccccc1)c1ccccc1 [Benzil]
- RA (%) relative activity (protein DCR1; [8]): 0%

Molecule: CC12CCC(C(=O)C1=O)C2(C)C (centres unmarked) [Camphorquinone]
- RA (%) relative activity (protein DCR1; [7]): 6%
- RA (%) relative activity (protein hDCR1; substrate concentration 500 μM): 23%

Molecule: C[C@]12C[C@H](O)[C@H]3[C@@H](CCC4=CC(=O)CC[C@@]43C)[C@@H]1CC[C@@H]2C(=O)C=O [Corticosterone-21-al]
- RA (%) relative activity (protein DCR1; [5]): 0.0%

Molecule: C[C@]12C[C@H](O)[C@H]3[C@@H](CCC4=CC(=O)CC[C@@]43C)[C@@H]1CC[C@@H]2C(=O)CO [Corticosterone]
- RA (%) relative activity (protein hDCR1; substrate concentration 50 μM): 0%

Molecule: C[C@]12CCC(=O)C=C1CC[C@@H]1[C@@H]2[C@@H](O)C[C@@]2(C)[C@H]1CC[C@]2(O)C(=O)C=O [Cortisol-21-al]
- RA (%) relative activity (protein DCR1; [5]): 0.0%

Molecule: O=C[C@H](O)[C@@H](O)[C@H](O)[C@H](O)CO [D-Glucose]
- RA (%) relative activity (protein DCR1; substrate concentration 200,000 μM, against a reference of 100 for diacetyl): 0%

Molecule: O=C[C@H](O)[C@@H](O)[C@H](O)[C@H](O)C(=O)O [D-Glucuronate]
- RA (%) relative activity (protein DCR1; [1]): 0%

Molecule: C[C@@H](O)C=O [D-Lactoaldehyde]
- RA (%) relative activity (protein DCR1; [1]): 0.6%

Molecule: COc1cccc2c1C(=O)c1c(O)c3c(c(O)c1C2=O)C[C@@](O)(C(C)=O)C[C@@H]3O[C@H]1C[C@H](N)[C@H](O)[C@H](C)O1 [Daunorubicin]
- RA (%) relative activity (protein DCR1; [7]): 1.1%
- RA (%) relative activity (protein hDCR1; substrate concentration 500 μM): 0%

Molecule: O=C1O[C@H]([C@@H](O)CO)C(=O)C1=O [Dehydroascorbic acid]
- RA (%) relative activity (protein DCR1; [7]): 0%

Molecule: COC(=O)CCC(=O)C(=O)OC [Dimethyl-2-oxoglutarate]
- RA (%) relative activity (protein hDCR1; [6]): 63%

Molecule: CCOC(=O)CC(C)=O [Ethyl acetoacetate]
- RA (%) relative activity (protein DCR1; [1]): 0%

Molecule: O=CCO [Glycolaldehyde]
- RA (%) relative activity (protein DCR1; [2]): 0.9%

Molecule: O=CC=O [Glyoxal]
- RA (%) relative activity (protein DCR1; [2]): 0%

Molecule: CC1=CC(=O)c2ccccc2C1=O [Menadione (Vitamin K3), Menadione]
- activity (as substrate) (protein DCR1): no activity
- RA (%) relative activity (protein DCR1; [8]): 0.1%
- RA (%) relative activity (protein hDCR1; substrate concentration 100 μM): 0%

Molecule: COC(=O)CC(C)=O [Methyl acetoacetate]
- RA (%) relative activity (protein DCR1; [1]): 0.2%

Molecule: CC(=O)C=O [Methylglyoxal]
- RA (%) relative activity (protein DCR1; [1]): 2.3%
- RA (%) relative activity (protein DCR1; [2]): 7.9%
- RA (%) relative activity (protein hDCR1; [3]): 20%

Molecule: C=CCN1CC[C@]23c4c5ccc(O)c4O[C@H]2C(=O)CC[C@@]3(O)[C@H]1C5 [Naloxone]
- RA (%) relative activity (protein DCR1; [1]): 0%

Molecule: CCCCC[C@H](O)/C=C/[C@H]1[C@H](O)CC(=O)[C@@H]1C/C=C\CCCC(=O)O [PGE2]
- RA (%) relative activity (protein DCR1; [1]): 0.0%

Molecule: O=CC(=O)c1ccccc1 [Phenylglyoxal]
- RA (%) relative activity (protein DCR1; [1]): 3.9%
- RA (%) relative activity (protein hDCR1; [4]): 35%

Molecule: O=C(O)C(=O)Cc1ccccc1 [Phenylpyruvic acid]
- RA (%) relative activity (protein DCR1; [1]): 0.5%

Molecule: CCC(=O)c1ccccc1 [Propiophenone]
- RA (%) relative activity (protein DCR1; [1]): 0%

Molecule: O=Cc1cccnc1 [Pyridine-3-aldehyde]
- RA (%) relative activity (protein DCR1; [1]): 4%
- RA (%) relative activity (protein hDCR1; [4]): 27%

Molecule: O=Cc1ccncc1 [Pyridine-4-aldehyde]
- RA (%) relative activity (protein DCR1; [2]): 13.7%
- RA (%) relative activity (protein hDCR1; [4]): 27%

Molecule: CCOC(=O)C(C)=O [Pyruvic acid ethyl ester]
- RA (%) relative activity (protein DCR1; [1]): 35.2%
- RA (%) relative activity (protein hDCR1; [4]): 33%

Molecule: COC(=O)C(C)=O [Pyruvic acid methyl ester]
- RA (%) relative activity (protein DCR1; [1]): 23.3%
- RA (%) relative activity (protein hDCR1; [4]): 46%

Molecule: CC(=O)C(=O)O [Pyruvic acid]
- RA (%) relative activity (protein DCR1; [2]): 0%

Molecule: O[C@H]1CCc2ccccc21 [S-indan-1-ol]
- activity (as substrate) (protein DCR1): no activity

Molecule: C[C@]12CC[C@@H](O)C[C@H]1CC[C@@H]1[C@@H]2[C@@H](O)C[C@]2(C)[C@@H](C(=O)CO)CC[C@@H]12 [Tetrahydrocorticosterone]
- RA (%) relative activity (protein DCR1): 0.0%

Molecule: O=C(O)CCC(=O)C(=O)O [α-Ketoglutaric acid]
- RA (%) relative activity (protein DCR1; [1]): 0%

Molecule: Indolecarboaldehyde
- RA (%) relative activity (protein DCR1; [1]): 0%

Molecule: Phenyl-2-butanone
- RA (%) relative activity (protein DCR1; [1]): 0.2%
